This is an account of results in patent publication US5776929A, “Benzodiazepine derivative” (Shionogi & Co., Ltd., priority 1993, dated 1998).

One experiment addresses T1, CCK-B receptor (Mus musculus, UniProt P56481).
T1 construct: crude membrane specimen from mouse cerebral cortex; from tissue; host or cells: cerebral cortex of male ddY mice, crude membranes
T1 sequence (P56481 1-453): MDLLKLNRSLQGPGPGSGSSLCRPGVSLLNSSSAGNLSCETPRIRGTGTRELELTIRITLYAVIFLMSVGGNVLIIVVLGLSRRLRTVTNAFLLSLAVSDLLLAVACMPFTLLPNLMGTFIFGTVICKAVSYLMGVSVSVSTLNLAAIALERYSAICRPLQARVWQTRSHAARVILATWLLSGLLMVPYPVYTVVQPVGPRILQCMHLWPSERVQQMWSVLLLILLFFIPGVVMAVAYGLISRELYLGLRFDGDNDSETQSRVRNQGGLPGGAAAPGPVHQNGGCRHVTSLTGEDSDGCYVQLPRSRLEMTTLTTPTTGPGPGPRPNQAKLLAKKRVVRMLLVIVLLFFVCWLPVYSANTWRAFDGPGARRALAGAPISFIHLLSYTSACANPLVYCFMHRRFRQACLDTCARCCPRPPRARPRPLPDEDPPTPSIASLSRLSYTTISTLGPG
The experiment can be described thus: CCK-B receptor antagonism, displacement of [3H]CCK-8, cerebral cortex crude membrane. The experiment is classed as binding, mouse (male ddY). The settings on record: mouse cerebral cortex membrane, [3H]CCK-8 1 nM, 90 min, 25 °C; read-out: Receptor CCK-B (IC50). Here is the method: (§1) Male Hartley guinea pig (450-600 g) or male ddY mouse (24-30 g) were used.
(§2) (2) CCK-A Receptor Antagonism and CCK-B Receptor Antagonism
(§3) Preparation of CCK receptor preparations
(§4) Male ddY mice (24 to 30 g) were killed by decapitation and cerebral cortex (CCK-B) and pancreas (CCK-A) were extracted immediately. Each of cerebral cortex and pancreas was mixed with 50 mM Tris-HCl buffer (pH 7.4) and homogenized with a teflon-glass homogenizer and polytron homogenizer to obtain crude membrane specimens.
(§5) Preparation of test compounds and procedures of displacing assay A 1M solution of a compound to be tested in DMSO is prepared and diluted with 50% DMSO to obtain a ten-fold dilution series.
(§6) The reaction is initiated by the addition of crude membrane specimen to solutions of different concentration each containing [^3 H]CCk-8 (final concentration, 1 nM). The mixture is incubated for 90 min at 25° C., filtered through glass filter with aspiration and washed with a cooled 50 mM Tris buffer. After the addition of Aquazol-2 cocktail the radioactivity is counted. The same procedure was repeated using 50% DMSO solution or Ceruletide (final concentration, 1 μM) instead of a solution of test compound so as to obtain the control value regarding total binding or the value regarding non-specific binding, respectively. […]
(§7) specific binding of control=total binding (cpm)-non-specific binding (cpm); and specific binding of test compound=[…]-non-specific binding (cpm).

Another experiment concerns gastric acid secretion. The experiment can be described thus: Inhibitory effect on gastric acid secretion by Schild method (pentagastrin-stimulated). The experiment is classed as in vivo, rat (male Sprague Dawley). The settings on record: intraduodenal, rat, read-out: Inhibitory Effect on acid secretion (Schild method), percent inhibition. From the text:
Evaluation of Inhibitory Effect on Gastric Acid Secretion by Schild Method
Twenty four hour starved (ad libitum for water) male Sprague Dawley rats (8-week-old) were anesthetized with urethane (1.5 g/kg S.C.) and kept breathing with esophagus cannulas. After laparotomy, esophagus cannulas were inserted orally up to proventriculus and ligated around gastric cardiac. Perfusion cannulas were inserted from duodenum into stomach and ligated around pylorus. Another cannulas were placed into duodenum and ligated for administration of drug. After sutra of abdomen, stomach was perfused via the esophagus cannulas with physiological saline (37° C.) while collecting perfusate for a 15 min interval. The perfusate was subjected to titration with 0.001 N NaOH solution to determine the acidity. When the basal acid secretion became stable, pentagastrin ([…]) was administered in a sustained manner via common carotid vein for about 90 min until the acid secretion reached approximately the highest level, when a test compound (0.5% M.C. suspension) was administered into duodenum through cannulas. The perfusate was collected for a 15 min interval to monitor the acid secretion for 90 min. The percent inhibition was calculated as follows:
Percent inhibition (%)=100×(A-B)/(C-B)
A: the minimum value of total acidity observed after the administration of a test compound;
B: the total acidity obtained immediately before the administration of pentagastrin; and
C: the total acidity obtained immediately before the administration of a test compound.

Another experiment deals with T2, gastrin receptor (Cavia porcellus, UniProt H0VZC5).
T2 construct: stomach was extracted from each animal immediately, from which gastric glands were prepared; from tissue; host or cells: gastric (fundic) glands of male Hartley guinea pigs
T2 sequence (H0VZC5 1-426): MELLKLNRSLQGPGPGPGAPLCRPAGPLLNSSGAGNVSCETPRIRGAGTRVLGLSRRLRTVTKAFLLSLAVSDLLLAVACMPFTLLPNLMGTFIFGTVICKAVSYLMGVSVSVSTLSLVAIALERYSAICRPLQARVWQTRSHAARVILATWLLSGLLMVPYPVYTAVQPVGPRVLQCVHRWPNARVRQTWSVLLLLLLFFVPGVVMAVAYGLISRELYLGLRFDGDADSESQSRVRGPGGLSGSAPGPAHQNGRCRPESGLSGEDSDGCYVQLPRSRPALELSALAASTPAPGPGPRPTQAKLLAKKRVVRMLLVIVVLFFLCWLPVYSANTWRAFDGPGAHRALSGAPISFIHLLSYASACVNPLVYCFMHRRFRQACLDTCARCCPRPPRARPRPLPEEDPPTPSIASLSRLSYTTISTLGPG
The experiment can be described thus: Gastrin receptor antagonism, displacement of 125I-labeled gastrin, gastric (fundic) gland cells. The experiment is classed as binding, guinea pig (male Hartley). The following applies: guinea pig gastric glands, 125I-gastrin 0.2 nM, 30 min, 25 °C; read-out: Receptor Gastrin (IC50). As for the experimental part: as §1
(1) Gastrin Receptor Antagonism
Preparation of gastric glands:
Male Hartley guinea pigs (450-600 g) were killed by bleeding and stomach was extracted from each animal immediately, from which gastric glands were prepared.
Preparation of test compounds and procedures of displacing assay
A 1M solution of a compound to be tested in DMSO is prepared and diluted with 50% DMSO to obtain a ten-fold dilution series.
The mixture is incubated for 30 min at 25° C., centrifuged at 2000 rpm for 5 min and the supernatant is removed by aspiration. To the pellet is added ice-cooled incubation buffer and mixed gently, followed by an immediate centrifugation and removal of the supernatant by aspiration. The radioactivity is counted on gamma counter. The same procedure was repeated using 50% DMSO solution or human gastrin I (final concentration, 2 μM) instead of a solution of test compound so as to obtain the control value regarding total binding or the value regarding non-specific binding, respectively. […]
as §7

The next experiment addresses T3, CCK-A receptor (Mus musculus, UniProt O08786).
T3 construct: crude membrane specimen from mouse pancreas; from tissue; host or cells: pancreas of male ddY mice, crude membranes
T3 sequence (O08786 1-436): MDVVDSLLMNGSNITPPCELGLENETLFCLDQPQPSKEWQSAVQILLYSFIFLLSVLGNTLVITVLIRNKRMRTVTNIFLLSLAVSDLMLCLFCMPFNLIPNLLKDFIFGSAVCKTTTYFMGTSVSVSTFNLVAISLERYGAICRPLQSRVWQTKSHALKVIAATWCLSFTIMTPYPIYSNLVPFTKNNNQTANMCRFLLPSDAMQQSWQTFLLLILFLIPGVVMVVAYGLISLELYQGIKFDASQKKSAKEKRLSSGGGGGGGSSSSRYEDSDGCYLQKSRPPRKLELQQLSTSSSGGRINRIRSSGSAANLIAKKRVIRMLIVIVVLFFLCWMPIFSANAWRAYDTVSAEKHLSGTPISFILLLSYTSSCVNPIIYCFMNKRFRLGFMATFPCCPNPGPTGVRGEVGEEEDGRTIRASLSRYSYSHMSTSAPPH
The experiment can be described thus: CCK-A receptor antagonism, displacement of [3H]CCK-8, pancreas crude membrane. The following applies: mouse pancreas membrane, [3H]CCK-8 1 nM, 90 min, 25 °C; read-out: Receptor CCK-A (IC50). Format: binding, mouse (male ddY). As for the experimental part:
as §1, §2, §3, §4, §5, §6, §7

Where only a bound is given, the exact number is not on record here.

One may read the IC50 as the concentration that gives 50% inhibition. As for `O=C(Nc1cccc(-c2nc(=O)o[nH]2)c1)NC1C(=O)N(CC(=O)C2CC2)c2ccccc2N(CC(=O)C2CC2)C1=O` [Compound 17-x, 1,5-Bis-(cyclopropylcarbonylmethyl)-3-(N'-(m-(5-keto-1,2,4-oxadiazol-3-yl)phenyl)ureido)-1H-1,5-benzodiazepine-2,4(3H,5H)-dione], the figures for the IC50 at CCK-B receptor, at gastrin receptor and at CCK-A receptor were 3 nM, 1 nM and 360 nM, respectively. For the same compound, the inhibition in vivo at 0.3 mg/kg in the experiment on gastric acid secretion was 70%.

With `Cc1cccc(NC(=O)NC2C(=O)N(CC(=O)C3CC3)c3ccccc3N(CC(=O)C3CC3)C2=O)c1` [Compound 8h, 1,5-Bis-(cyclopropylcarbonylmethyl)-3-(N'-(m-tolyl)ureido)-1H-1,5-benzodiazepine-2,4(3H,5H)-dione], the IC50 on CCK-B receptor was determined as 18 nM; on gastrin receptor, 5 nM; at CCK-A receptor it was 380 nM. In addition, in the experiment on gastric acid secretion, the inhibition in vivo at 0.3 mg/kg was 81%.

For `O=C(O)COc1cccc(NC(=O)NC2C(=O)N(CC(=O)C3CC3)c3ccccc3N(CC(=O)C3CC3)C2=O)c1` [Compound 17-vi, 1,5-Bis-(cyclopropylcarbonylmethyl)-3-(N'-(m-(carboxymethoxy)phenyl)ureido)-1H-1,5-benzodiazepine-2,4(3H,5H)-dione], the values for the IC50 on CCK-B receptor, at gastrin receptor and on CCK-A receptor were 16 nM, 3 nM and 4400 nM, respectively. In addition, the inhibition in vivo at 0.3 mg/kg with gastric acid secretion turned out to be 22%.

Turning to `O=C(Nc1cccc(-c2nnn[nH]2)c1)NC1C(=O)N(CC2CC2)c2ccccc2N(CC2CC2)C1=O` [Compound 19-iv, 1,5-Bis-(cyclopropylmethyl)-3-(N'-(m-tetrazolylphenyl)ureido)-1H-1,5-benzodiazepine-2,4(3H,5H)-dione], the half-inhibitory concentration (IC50) at CCK-B receptor was 26 nM; at gastrin receptor, 6 nM; on CCK-A receptor, 2600 nM. Moreover, the inhibition in vivo at 0.5 mg/kg in the experiment with gastric acid secretion (0.5 mg/kg) was determined as 58%.

Turning to `Cc1cccc(NC(=O)NC2C(=O)N(Cc3cccc(N)c3)c3ccccc3N(Cc3cccc(N)c3)C2=O)c1` [Compound 8r], the IC50 on CCK-B receptor was found to be 21 nM; on gastrin receptor, 18 nM; at CCK-A receptor, 760 nM. In the experiment on gastric acid secretion, the inhibition in vivo at 0.3 mg/kg amounted to 46%.

`COC(=O)Cc1cccc(NC(=O)NC2C(=O)N(CC(=O)C3CC3)c3ccccc3N(CC(=O)C3CC3)C2=O)c1` [Compound 17-xii, 1,5-Bis-(cyclopropylcarbonylmethyl)-3-(N'-(m-(carbomethoxymethyl)phenyl)ureido)-1H-1,5-benzodiazepine-2,4(3H,5H)-dione]: the IC50 was found to be 48 nM on CCK-B receptor, 15 nM at gastrin receptor and 2500 nM at CCK-A receptor. For the same compound, the inhibition in vivo at 0.3 mg/kg in the experiment with gastric acid secretion was determined as 48%.

Take `Cc1cccc(NC(=O)NC2C(=O)N(CC(=O)N3CCCC3)c3ccccc3N(CC(=O)N3CCCC3)C2=O)c1` [Compound 8a]: the IC50 worked out at 54 nM at CCK-B receptor, 7 nM at gastrin receptor and 860 nM at CCK-A receptor. In the experiment on gastric acid secretion, the inhibition in vivo at 0.3 mg/kg came to 49%.

For the compound `O=C(O)Cc1cccc(NC(=O)NC2C(=O)N(CC(=O)N3CCCC3)c3ccccc3N(CC(=O)N3CCCC3)C2=O)c1` [Compound 18-xiii, 1,5-Bis-(pyrrolidinocarbonylmethyl)-3-(N'-(m-(carboxymethyl)phenyl)ureido)-1H-1,5-benzodiazepine-2,4(3H,5H)-dione], the results for the IC50 at CCK-B receptor, on gastrin receptor and on CCK-A receptor were 29 nM, 7 nM and 10500 nM, respectively. Further, the inhibition in vivo at 0.3 mg/kg in the experiment on gastric acid secretion is 26%.

Regarding `O=C(Nc1cccc(-c2nnn[nH]2)c1)NC1C(=O)N(CC(=O)C2CC2)c2ccccc2N(CC(=O)C2CC2)C1=O` [Compound 17-iv, 1,5-Bis-(cyclopropylcarbonylmethyl)-3-(N'-(m-(tetrazoyl)phenyl)ureido)-1H-1,5-benzodiazepine-2,4(3H,5H)-dione], the IC50 turned out to be 8 nM at CCK-B receptor, 2 nM on gastrin receptor and 2900 nM on CCK-A receptor. Moreover, the inhibition in vivo at 0.1 mg/kg in the experiment with gastric acid secretion stood at 44%.

On to `CCOC(=O)c1cccc(NC(=O)NC2C(=O)N(CC(=O)C3CC3)c3ccccc3N(CC(=O)C3CC3)C2=O)c1` [Compound 17-i], for which the figures for the IC50 on CCK-B receptor, at gastrin receptor and on CCK-A receptor were 140 nM, 7 nM and 1350 nM, respectively. Besides, the inhibition in vivo at 0.3 mg/kg with gastric acid secretion was 44%.

As to `O=C(Nc1cccc(SCc2nnn[nH]2)c1)NC1C(=O)N(CC(=O)C2CC2)c2ccccc2N(CC(=O)C2CC2)C1=O` [Compound 17-xvii], the figures for the IC50 at CCK-B receptor, on gastrin receptor and on CCK-A receptor were 1 nM, less than 1 nM and 1300 nM, respectively. The inhibition in vivo at 0.1 mg/kg with gastric acid secretion is 30%.

In the case of `O=C(Nc1cccc(C(=O)O)c1)NC1C(=O)N(CC(=O)C2CC2)c2ccccc2N(CC(=O)C2CC2)C1=O` [Compound 17-ii], the IC50 was 105 nM on CCK-B receptor, 5 nM on gastrin receptor and greater than 10000 nM on CCK-A receptor. For the same compound, the inhibition in vivo at 0.3 mg/kg in the experiment with gastric acid secretion turned out to be 72%.
